Like-named read-outs stand apart in the source and are kept apart here.
Assays:
ENO2 [1] = target: T1, ENO2 (Homo sapiens, UniProt P09104); test: X-ray structure of ENO2 crystals soaked with inhibitor; format: binding; design: His tag (only implied by NiNTA purification); made in house; conditions: apo ENO2 crystals soaked with 2 mM compound; unbiased 2Fo-Fc omit map
Procedure: MethylSF2312 was co-crystallized with Human ENO2 to determine the configuration of the active compound in the active site. Apo crystals of ENO2 were prepared using published methods and were soaked in cryoprotectant containing the racemic mixture of MethylSF2312 for 16 h prior to freezing. The resulting co-crystal structure was resolved (Table 1), with four ENO2 homodimers in the asymmetric unit of the monoclinic crystal (PDB 5EU9).
Recombinant ENO2 protein was prepared using NiNTA affinity and size exclusion chromatography as described previously Apo crystals of Human Enolase 2 were prepared by streak seeding hanging drop solutions after mixing 0.5 μL 9.1 mg mL^−1 Enolase 2 with 0.5 μL reservoir solution (200 mM ammonium acetate, 100 mM Bis-Tris and 18–22% (w/v) PEG 3350). The hanging drops were incubated at room temperature above a 500 μL reservoir. Apo crystals were subsequently soaked overnight in 1 μL drops containing 100 mM Bis-Tis, 200 mM ammonium acetate, 32% (w/v) PEG 3350 at pH 6.5, supplemented with 2 mM racemate or pure enantiomer of MethylSF2312 compound, prior to flash freezing in liquid nitrogen. X-ray diffraction datasets were collected at 100 K using a wavelength of 1.11587 Å at the Advanced Light Source Beamline 8.3.1, equipped with ADSC Q315r detector. The diffraction images were indexed and integrated using iMOSFLM [19] and scaled using AIMLESS [20]. […]

ENO1 = target: T2, ENO1 (Homo sapiens, UniProt P06733); test: Enolase activity, NADH-linked PK/LDH coupled fluorometric assay in native lysates of human cancer cells overexpressing ENO1; format: biochemical; conditions: for IC50: lysates of D423 cells overexpressing ENO1
T2 construct: expressed in transfected cells; host or cells: D423-MG (ENO1-deleted human glioma) with ectopic ENO1
Procedure: We then determined Enolase inhibitory activity of (3R)-P1 and (3S)-P2 derived MethylSF2312 in native lysates from human cancer cells and E. coli overexpressing ENO1 and ENO2.
(§1) Native lysates of human cell lines were prepared using 20 mM Tris HCl, 1 mM EDTA, and 1 mM β-mercaptoethanol at pH 7.4 as described previously. Enolase activity was measured using two different methods, either by a fluorometric NADH-linked assay or a direct spectrophotometric assay via formation of PEP. In the fluorescent assay, enolase activity was measured via NADH oxidation in a pyruvate kinase–lactate dehydrogenase coupled assay as previously described. The assay is conducted in 10 mM KCl, 5 mM MgSO4, 100 mM triethanolamine at pH 7.4, with 400 µM NADH and 2 mM ADP. 2-Phosphoglycerate (2-PGA), pyruvate kinase (PK) and lactate dehydrogenase (LDH) are provided in excess, with the conversion of 2-PGA to PEP by enolase being rate limiting. PEP (with ADP) is a substrate of PK; pyruvate formed by this reaction is linked to NADH oxidation by LDH. Enolase activity is determined by measuring oxidation of NADH fluorescently by excitation at 340 nm and emission at 460 nm. The substrate concentration, if not otherwise indicated, was 5 mM 2-PGA. Fluorescence was measured using the Omega Fluorescence Plate Reader (BMG Labtech). Enolase activity was measured in native lysates of E. coli. Overnight grown saturated E. coli (DH5α) liquid culture was pelleted by centrifugation, washed and resuspended in 50 µL of lysis buffer which contains 150 mM NaCl, 50 mM Tris, 1mM EDTA, 2 mM DTT and 0.025% sodium azide. PMSF (10 mM stock solution) was then added to the lysate to make the final concentration 1 mM with 1% sodium deoxycholate. The suspension was incubated at 4 °C with constant mixing. The extract was centrifuged at 4 °C, 14,000 g for 15 min. Enolase activity in E. coli native lysates was measured directly by the appearance of PEP from 2-PGA via absorption at 240 nm. The assay medium was the same, except that all the auxiliary reagents (PK/LDH, NADH, ADP) are omitted. […]

ENO2 [2] = target: T1, ENO2; test: Enolase activity, NADH-linked PK/LDH coupled fluorometric assay in native lysates of human cancer cells overexpressing ENO2; format: biochemical; design: expressed in transfected cells; host or cells: D423-MG (ENO1-deleted human glioma) with ectopic ENO2
Procedure: (§2) To compare the effects of isomeric mixtures of MethylSF2312 and SF2312 on Enolase activity, we measured the formation PEP coupled to the oxidation of NADH via LDH/PK on human cancer cells overexpressing ENO2 [4, 14]. […] Here, we favored the direct measurement of PEP absorbance, rather than of NADH, due to the high levels of endogenous NADH oxidase activity in bacterial lysates.
Native lysates of human cell lines were prepared using 20 mM Tris HCl, 1 mM EDTA, and 1 mM β-mercaptoethanol at pH 7.4 as described previously. Enolase activity was measured using two different methods, either by a fluorometric NADH-linked assay or a direct spectrophotometric assay via formation of PEP. In the fluorescent assay, enolase activity was measured via NADH oxidation in a pyruvate kinase–lactate dehydrogenase coupled assay as previously described. The assay is conducted in 10 mM KCl, 5 mM MgSO4, 100 mM triethanolamine at pH 7.4, with 400 µM NADH and 2 mM ADP. 2-Phosphoglycerate (2-PGA), pyruvate kinase (PK) and lactate dehydrogenase (LDH) are provided in excess, with the conversion of 2-PGA to PEP by enolase being rate limiting. PEP (with ADP) is a substrate of PK; pyruvate formed by this reaction is linked to NADH oxidation by LDH. Enolase activity is determined by measuring oxidation of NADH fluorescently by excitation at 340 nm and emission at 460 nm. The substrate concentration, if not otherwise indicated, was 5 mM 2-PGA. Fluorescence was measured using the Omega Fluorescence Plate Reader (BMG Labtech). Enolase activity was measured in native lysates of E. coli. Overnight grown saturated E. coli (DH5α) liquid culture was pelleted by centrifugation, washed and resuspended in 50 µL of lysis buffer which contains 150 mM NaCl, 50 mM Tris, 1mM EDTA, 2 mM DTT and 0.025% sodium azide. PMSF (10 mM stock solution) was then added to the lysate to make the final concentration 1 mM with 1% sodium deoxycholate. The suspension was incubated at 4 °C with constant mixing. The extract was centrifuged at 4 °C, 14,000 g for 15 min. Enolase activity in E. coli native lysates was measured directly by the appearance of PEP from 2-PGA via absorption at 240 nm. The assay medium was the same, except that all the auxiliary reagents (PK/LDH, NADH, ADP) are omitted. Assays were conducted in a 96-well plated format with the direct assay performed in UV-transmissible plates.

[3] = tested on: D423 ENO1-deleted glioma cells; test: Proliferation assay of glioma cell lines by crystal violet staining; format: cell-based, human; conditions: for toxicity against ENO1-deleted versus ENO1-intact glioma cells (in words): six days of treatment, D423 ENO1-deleted vs D423 ENO1-rescued and LN319 ENO1-WT
Description: The cell line D423-MG was provided by Dr. Bigner. The 1p36 homozygous deletion in D423-MG spans from the CAMTA1 to SLC25A33 genes, including ENO1. The generation of isogenic ENO1 and ENO2 ectopically rescued lines was described previously. The LN319 cell line was obtained from Cell Bank of The Department of Genomic Medicine at M.D. Anderson. Cells were routinely cultured in high glucose, glutamine, and pyruvate containing Dulbecco’s modified Eagle’s medium (DMEM) with 10% fetal bovine serum (FBS).
Cell proliferation of glioma cell lines was assayed through crystal violet staining. Cells were seeded at 1500 cells/well in 96-well plates, and after 24 h, were treated with dilution series of enolase inhibitors, with each treatment concentration in duplicate wells. At the indicated time, cells were fixed with 10% formalin and stained with crystal violet. Dye extraction was performed using 10% acetic acid solution, and absorbance was read at 595 nm.

[4] = target: T3, Enolase in Escherichia coli lysates (Escherichia coli, UniProt P0A6P9); test: Enolase activity in E. coli native lysates, direct measurement of PEP formation at 240 nm; format: biochemical
T3 construct: Overnight grown saturated E. coli (DH5α) liquid culture was pelleted by centrifugation; endogenous in cells; host or cells: E. coli DH5α
Procedure: as §2
as §1, with “The extract was centrifuged at 4 °C, 14,000 g for 15 min.” left out, “nm.” for “nm. The assay medium was the same, except that all the auxiliary reagents (PK/LDH, NADH, ADP) are omitted.”

E. coli (DH5α) = test: Kirby Bauer disc diffusion antibiotic sensitivity testing; format: cell-based, Escherichia coli; conditions: for zone of inhibition at 35 µg/disc: Escherichia coli, read-out: clear zone of growth inhibition
Procedure: Finally, the antibiotic activities of SF2312 and MethylSF2312 were compared in E. coli using the disc diffusion method. A 7 mm filter paper disc imbued with 35 µg of either SF2312 or MethylSF2312 was placed on an E. coli lawn on Muller-Hinton Agar. […] Of note, growth inhibition was only observed with the addition of glucose-6-phosphate (G6P).
Kirby Bauer disc diffusion antibiotic sensitivity testing was performed on Mueller Hinton II Agar (BD #221275) or BBL™ Columbia Agar with 5% Sheep Blood (BD #221165). An overnight overnight-grown saturated E. coli (DH5α) liquid culture was diluted (1:50) in water and streaked on the agar plate to form a bacterial lawn. D-Glucose-6-phosphate (Sigma #G7250) was made in 100 mM stock solution and added to the diluted bacteria to achieve 2 mM final concentration right before streaking the plate. A 7 mm Whatman™ 3MM Chr Chromatography filter paper disc (Whatman # 3030-6189) was imbued with 7 µL of an aqueous solution of inhibitor, placed on the streaked agar plate and incubated overnight at 37 °C.

[5] = lysates of human cancer cells (D423) overexpressing ENO2, 5 mM 2-PGA, read-out: IC50 for ENO2

T3 sequence (P0A6P9 whole entry): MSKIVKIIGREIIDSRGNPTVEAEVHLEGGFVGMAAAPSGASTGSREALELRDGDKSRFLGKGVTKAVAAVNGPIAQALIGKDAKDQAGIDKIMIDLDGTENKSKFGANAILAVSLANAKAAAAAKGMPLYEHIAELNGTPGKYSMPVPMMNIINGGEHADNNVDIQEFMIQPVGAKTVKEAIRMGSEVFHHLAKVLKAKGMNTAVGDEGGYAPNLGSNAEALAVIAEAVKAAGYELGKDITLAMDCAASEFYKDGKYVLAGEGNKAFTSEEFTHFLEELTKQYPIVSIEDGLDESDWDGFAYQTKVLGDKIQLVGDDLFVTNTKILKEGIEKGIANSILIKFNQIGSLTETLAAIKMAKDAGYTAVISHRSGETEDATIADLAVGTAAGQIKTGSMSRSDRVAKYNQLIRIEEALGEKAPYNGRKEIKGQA
T2 sequence (P06733 whole entry): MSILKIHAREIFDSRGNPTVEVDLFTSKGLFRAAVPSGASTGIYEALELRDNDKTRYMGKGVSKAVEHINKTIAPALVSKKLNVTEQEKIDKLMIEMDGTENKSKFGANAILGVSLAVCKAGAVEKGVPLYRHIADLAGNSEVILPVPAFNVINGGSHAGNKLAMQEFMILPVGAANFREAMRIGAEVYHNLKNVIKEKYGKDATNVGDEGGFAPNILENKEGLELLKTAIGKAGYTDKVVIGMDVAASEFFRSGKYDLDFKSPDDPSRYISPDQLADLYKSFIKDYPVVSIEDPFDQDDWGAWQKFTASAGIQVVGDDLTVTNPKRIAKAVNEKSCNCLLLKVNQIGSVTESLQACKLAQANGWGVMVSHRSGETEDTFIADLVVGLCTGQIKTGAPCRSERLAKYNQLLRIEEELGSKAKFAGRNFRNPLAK
T1 sequence (P09104 whole entry): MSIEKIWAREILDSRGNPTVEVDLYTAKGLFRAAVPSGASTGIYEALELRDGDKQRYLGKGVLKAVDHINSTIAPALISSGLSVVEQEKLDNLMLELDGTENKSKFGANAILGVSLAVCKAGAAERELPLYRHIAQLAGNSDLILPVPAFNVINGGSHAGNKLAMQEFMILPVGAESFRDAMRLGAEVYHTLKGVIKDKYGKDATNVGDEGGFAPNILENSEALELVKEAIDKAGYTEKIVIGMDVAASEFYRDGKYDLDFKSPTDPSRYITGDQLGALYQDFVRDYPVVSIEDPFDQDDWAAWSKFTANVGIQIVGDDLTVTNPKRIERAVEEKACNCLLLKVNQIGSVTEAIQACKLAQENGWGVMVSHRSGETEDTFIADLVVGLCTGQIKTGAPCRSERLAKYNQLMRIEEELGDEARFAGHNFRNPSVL

SMILES: C[C@@]1(P(=O)(O)O)CC(O)N(O)C1=O (stereo partly drawn) [(3R)-MethylSF2312]
- occupancy of the ENO2 active site in the electron density map (in words) (ENO2 [1]): no evidence of occupancy
- fold less potent than (3S)-MethylSF2312 (ENO1; ENO1, ratio of IC50 values): 2000 fold
- IC50 (ENO1): ~15000 nM
- IC50 (ENO2 [2]; lysates of D423 cells overexpressing ENO2, read-out: IC50 for ENO2): ~15000 nM
- toxicity towards ENO1-deleted glioma cells (in words) ([3]; even at 400 µM, D423 ENO1-deleted, 7 days): minimal toxicity

SMILES: C[C@]1(P(=O)(O)O)CC(O)N(O)C1=O (stereo partly drawn) [(3S)-MethylSF2312]
- occupancy of the ENO2 active site in the electron density map (in words) (ENO2 [1]): occupied in 3S,5S-configuration
- IC50 (ENO1): ~10 nM
- IC50 (ENO2 [2]; [5]): ~10 nM
- fold greater Enolase inhibitory potency compared to (3R)-MethylSF2312 ([4]; E. coli lysates): ~ 2000 fold
- concentration exhibiting toxicity to ENO1-deleted glioma cells ([3]; D423 ENO1-deleted, 7 days, crystal violet): ~ 2 µM
- zone of inhibition (in words) (E. coli (DH5α); 35 µg per disc, Muller Hinton Agar and Blood Agar, with G6P, overnight 37 °C): distinct zone of inhibition

SMILES: CC1(P(=O)(O)O)CC(O)N(O)C1=O (stereo not shown) [MethylSF2312, (1,5-dihydroxy-3-methyl-2-oxopyrrolidin-3-yl)phosphonic acid]
- IC50 (ENO2 [2]; [5]): ~10 nM
- IC50 ([4]; direct PEP absorbance at 240 nm, read-out: IC50, Enolase in E. coli lysates): ~10 nM
- toxicity against ENO1-deleted versus ENO1-intact glioma cells (in words) [3]: selective toxicity
- zone of inhibition at 35 µg/disc (E. coli (DH5α); 7 mm disc with 35 µg, Muller-Hinton Agar, overnight, with glucose-6-phosphate): ~24 mm

SMILES: O=C1C(P(=O)(O)O)CC(O)N1O (stereo not shown) [SF2312, (1,5-dihydroxy-2-oxopyrrolidin-3-yl)phosphonic acid]
- IC50 (ENO2 [2]): ~10 nM
- IC50 [4]: ~10 nM
- toxicity against ENO1-deleted versus ENO1-intact glioma cells (in words) [3]: selective toxicity
- zone of inhibition at 35 µg/disc (E. coli (DH5α)): ~24 mm

Source: PMC6651268, “The 3S Enantiomer Drives Enolase Inhibitory Activity in SF2312 and Its Analogues” (Molecules, 2019)
